From patent US20170342499A1, “GENOMIC CLASSIFIER THAT PREDICTS RESPONSE TO MULTI-KINASE INHIBITOR TREATMENT INTRODUCTION” (Centre Léon-Bérard, priority 2014, published 2017)

Legend:
CRC = assay: Response to conventional chemotherapy versus SUMSCAN prediction in CRC patients; type: in vivo, human; settings: CRC patients (n = 21)
[1] = tested on: pretreated metastatic colorectal cancer (mCRC); settings: cited from earlier work
[2] = tested on: imatinib and sunitinib refractory gastrointestinal stromal tumors (GIST); settings: cited from earlier work

Compound	patients resistant to the chemotherapy regimen, n (% of 21) (CRC; SUMSCAN Predicted Resistant)	patients sensitive to the chemotherapy regimen, n (% of 21) (CRC; SUMSCAN Predicted Resistant)	patients resistant to the chemotherapy regimen, n (% of 21) (CRC; SUMSCAN Predicted Sensitive)	patients sensitive to the chemotherapy regimen, n (% of 21) (CRC; SUMSCAN Predicted Sensitive)	patients resistant to the chemotherapy regimen, n (% of 21) (CRC; Total)	patients sensitive to the chemotherapy regimen, n (% of 21) (CRC; Total)	improvement in PFS [1] [weeks]	antitumor activity by nature of the KIT/or PDGFRA mutation ([2]; GIST)	improvement in PFS ([2]; imatinib and sunitinib refractory GIST) [months]
CCc1c2c(nc3ccc(OC(=O)N4CCC(N5CCCCC5)CC4)cc13)-c1cc3c(c(=O)n1C2)COC(=O)[C@]3(O)CC [Irinotecan]	2 (9.5%)	7 (33.3%)	3 (14.3%)	9 (42.9%)	5 (23.8%)	16 (76.2%)	–	–	–
O=C1[O][Pt]2([NH][C@@H]3CCCC[C@H]3[NH]2)[O]C1=O [Oxaliplatin]	2 (9.5%)	7 (33.3%)	6 (28.6%)	6 (28.6%)	8 (38.1%)	13 (61.9%)	–	–	–
CNC(=O)c1cc(Oc2ccc(NC(=O)Nc3ccc(Cl)c(C(F)(F)F)c3)c(F)c2)ccn1 [Regorafenib]	–	–	–	–	–	–	0.9	observed at the same level regardless of the nature of the KIT/or PDGFRA mutation	4
